Experimental data as given in patent US20090088441A1, “Quinoline Compounds” (priority 2007, published 2009).

Experiments:
[1] = target: T1, GABABR1a/GABABR2 heterodimer (Homo sapiens, UniProt O75899+Q9UBS5); test: GTPγS35 radioligand filtration-binding assay for determination of agonist potency; format: biochemical; settings: membranes of CHO K1 Flp-In cells expressing GABABR1a/GABABR2; 30° C., 1 hour
T1 construct: expressed in transfected cells; membrane preparation
Description: (§1) The potency and efficacy of the compounds acting as agonists at the GABAB receptor was also determined in a automated GTPγS^35 radioligand filtration-binding assay.
(§2) The GABAB receptor is a G-protein coupled receptor. Binding of a ligand activates the receptor leading to recruitment of G-protein and a substitution of the G-protein bound GDP to GTP. The G-protein becomes active. The G-protein is inactivated by hydrolysis of GTP to GDP. G-proteins are membrane bound and therefore present in membrane preparations.
(§3) In the GTPγS^35 assay, GTP is not present but instead GTPγS^35 where one of the phosphate groups are substituted to a sulphur group which cannot be hydrolysed. Upon activation of the receptor, radiolabelled GTPγS^35 replaces the GDP. The complex cannot be inactivated and the radiolabelled complex is accumulating. At the end of the assay, the reaction mixture is filtered through a membrane-binding filter. Excess GTPγS^35 is removed by washing and the membrane bound S^35, which correlates to the degree of receptor activation, is measured with a β-Liquid Scintillation Counter.
The human GABABR1a was subcloned into pIRESneo3 (Clontech) using GABABR1a construct as a template (refseqN NM001470). GABABR2 was subcloned into pcDNA5/FRT (Invitrogen) using GABABR2 construct as a template (refseqN NM005458). The Kozak sequence GCCACC was introduced before the start codon in both constructs.
For generation of stable cell lines, CHO K1 Flp-In cells (Invitrogen) were grown in DMEM/F12 1:1 media supplemented with 10% FBS at 37° C. in a humidified CO2-incubator. The cells were detached with Accutase and 1.5 million cells were seeded into T75 flasks. After 24 h, transfection of the cells were performed with the GABABR2 construct. For generation of cell lines expressing GABABR2, GABABR2 plasmid (1 μg) and pOG44 from Invitrogen (9 μg) were mixed with 30 μl Lipofectamine 2000 in 600 μl OptiMEM for 20 minutes. The cells were exposed to transfection medium for 5 hours and was then replaced with culture medium. After 2 days 0.5 mg/ml Hygromycin were added to culture medium. The cells were cultured for an additional 10 days to establish a stable cell mix expressing GABABR2. For generation of a cell line expressing the GABABR1a/GABABR2 hetrodimer, GABABR1a plasmid DNA (8 μg) and Lipofectamine (30 μl) were mixed in 600 μl OptiMEM and incubated for 20 minutes before added to CHO-Flp-In cells expressing GABABR2. After 2 days additional selection agent was added (0.8 mg/ml Geneticin). The cells were cultured for another 10 days to generate a stable mixed population expressing the GABABR1a/GABABR2 heterodimer. The cell line was analyzed by GTPγS^35 assay with GABA as agonist.
GTPγS^35 radioligand filtration-binding assays were performed using an automated workstation at 30° C. for 1 hour in assay buffer (50 mM HEPES, 40 mM NaCl, 1 mM MgCl2×6H2O, 30 μg/mL Saponin, pH 7.4 at RT) containing 0.025 μg/μL of membrane protein (prepared from the cell line described above), 10 μM GDP and 0.55 nCi/μL GTPγS^35 in a final volume of 60 μL. The reaction was started by the addition of compounds (GABA was always included as a positive control), start concentration 100 μM dilution factor 3. The reaction was terminated and membranes collected by addition of ice-cold wash buffer (50 mM Tris-HCl, 5 mM MgCl2×6H2O, 50 mM NaCl, pH 7.4 at 4° C.) followed by rapid filtration under vacuum through a MultiScreen HTS 384 FB filter plate. Repeated washing of the filters with ice-cold wash buffer washed the unbound radioligand away. The filter plates were dried for 1½-2 hours at 50° C., then 8 μL scintillation liquid was added per well followed by incubation at RT for at least 20 minutes before bound radioactivity was determined using a β-Liquid Scintillation Counter (1450 Microbeta Trilux, Wallac, Finland)
100% activation (max) is calculated as the mean value for wells containing 1 mM GABA. […]

[2] = target: T2, GABAB(1A,2) receptor heterodimer (Homo sapiens, UniProt O75899+Q9UBS5); test: GTPγS35 radioligand filtration-binding assay for determination of PAM potency; format: biochemical; settings: membranes of CHO-K1 cells expressing GABABR1a/GABABR2; GABA dose-response with 10, 1, 0.1 and 0.01 μM PAM; concentration reducing GABA's EC50 by 50%; read-out: Mean (EC50 derived) PAM EC50
T2 construct: expressed in transfected cells; membrane preparation
Description: The effect of GABA in an automated GTPγS^35 radioligand filtration-binding assay in CHO cells expressing the GABAB(1A,2) receptor heterodimer was studied in the presence or absence of the positive allosteric modulator test compounds.
as §1, §2, §3
GABABR1a and GABABR2 were cloned from human brain cDNA and subcloned into pCI-Neo (Promega) and pALTER-1 (Promega), respectively.
In order to optimise the Kozak consensus sequence of GABABR2, in situ mutagenesis was performed using the Altered Sites Mutagenesis kit according to manufacturer's instruction (Promega) with the following primer, 5′-[…]-3′. The optimised GABABR2 was then restricted from pALTER-1 with Xho I+Kpn I and subcloned into the mammalian expression vector pcDNA3.1 (−)/Zeo (Invitrogen) to produce the final construct, pcDNA3.1 (−)/Zeo-GABABR2.
For generation of stable cell lines, CHO-K1 cells were grown in Nut mix F-12 (Ham) media supplemented with 10% FBS, 100 U/ml Penicillin and 100 μg/ml Streptomycin at 37° C. in a humidified CO2-incubator. The cells were detached with 1 mM EDTA in PBS and 1 million cells were seeded in 100 mm petri dishes. After 24 hours the culture media was replaced with OptiMEM and incubated for 1 hour in a CO2-incubator.
For generation of a cell line expressing the GABABR1a/GABABR2 heterodimer, GABABR1a plasmid DNA ([…]) GABABR2 plasmid DNA (4 μg) and lipofectamine (24 μl) were mixed in 5 ml OptiMEM and incubated for 45 minutes at room temperature. […] After expansion, the GABAB receptor functional response was tested by measuring the GABAB receptor dependent release of intracellular calcium in a fluorescence imaging plate reader (FLIPR). […]

T2 sequence (Q9UBS5 15-961 limits assumed): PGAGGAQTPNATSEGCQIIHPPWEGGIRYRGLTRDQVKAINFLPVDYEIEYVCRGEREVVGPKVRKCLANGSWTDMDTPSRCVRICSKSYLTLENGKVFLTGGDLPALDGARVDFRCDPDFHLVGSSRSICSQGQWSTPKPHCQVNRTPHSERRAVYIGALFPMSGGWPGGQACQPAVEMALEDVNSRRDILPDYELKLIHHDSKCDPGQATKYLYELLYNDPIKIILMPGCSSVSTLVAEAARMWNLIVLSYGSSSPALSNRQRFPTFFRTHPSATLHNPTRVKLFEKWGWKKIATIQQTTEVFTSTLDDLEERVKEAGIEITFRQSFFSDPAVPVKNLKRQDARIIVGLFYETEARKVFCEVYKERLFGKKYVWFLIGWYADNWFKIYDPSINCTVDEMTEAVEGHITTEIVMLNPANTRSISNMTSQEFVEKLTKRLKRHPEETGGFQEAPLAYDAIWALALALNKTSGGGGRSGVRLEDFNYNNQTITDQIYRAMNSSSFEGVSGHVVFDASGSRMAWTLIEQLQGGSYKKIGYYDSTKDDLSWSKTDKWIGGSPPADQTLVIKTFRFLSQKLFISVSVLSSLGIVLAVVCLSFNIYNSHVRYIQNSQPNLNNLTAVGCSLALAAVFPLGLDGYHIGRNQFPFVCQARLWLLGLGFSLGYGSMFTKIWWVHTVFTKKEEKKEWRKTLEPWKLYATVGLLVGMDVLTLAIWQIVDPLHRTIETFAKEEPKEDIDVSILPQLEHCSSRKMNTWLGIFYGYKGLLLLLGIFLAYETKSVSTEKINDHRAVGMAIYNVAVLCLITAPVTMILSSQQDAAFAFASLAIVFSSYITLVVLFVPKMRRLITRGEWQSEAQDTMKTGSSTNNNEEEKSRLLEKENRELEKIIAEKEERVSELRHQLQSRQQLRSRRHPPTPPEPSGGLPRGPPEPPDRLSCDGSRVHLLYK
T2 sequence (O75899 42-941): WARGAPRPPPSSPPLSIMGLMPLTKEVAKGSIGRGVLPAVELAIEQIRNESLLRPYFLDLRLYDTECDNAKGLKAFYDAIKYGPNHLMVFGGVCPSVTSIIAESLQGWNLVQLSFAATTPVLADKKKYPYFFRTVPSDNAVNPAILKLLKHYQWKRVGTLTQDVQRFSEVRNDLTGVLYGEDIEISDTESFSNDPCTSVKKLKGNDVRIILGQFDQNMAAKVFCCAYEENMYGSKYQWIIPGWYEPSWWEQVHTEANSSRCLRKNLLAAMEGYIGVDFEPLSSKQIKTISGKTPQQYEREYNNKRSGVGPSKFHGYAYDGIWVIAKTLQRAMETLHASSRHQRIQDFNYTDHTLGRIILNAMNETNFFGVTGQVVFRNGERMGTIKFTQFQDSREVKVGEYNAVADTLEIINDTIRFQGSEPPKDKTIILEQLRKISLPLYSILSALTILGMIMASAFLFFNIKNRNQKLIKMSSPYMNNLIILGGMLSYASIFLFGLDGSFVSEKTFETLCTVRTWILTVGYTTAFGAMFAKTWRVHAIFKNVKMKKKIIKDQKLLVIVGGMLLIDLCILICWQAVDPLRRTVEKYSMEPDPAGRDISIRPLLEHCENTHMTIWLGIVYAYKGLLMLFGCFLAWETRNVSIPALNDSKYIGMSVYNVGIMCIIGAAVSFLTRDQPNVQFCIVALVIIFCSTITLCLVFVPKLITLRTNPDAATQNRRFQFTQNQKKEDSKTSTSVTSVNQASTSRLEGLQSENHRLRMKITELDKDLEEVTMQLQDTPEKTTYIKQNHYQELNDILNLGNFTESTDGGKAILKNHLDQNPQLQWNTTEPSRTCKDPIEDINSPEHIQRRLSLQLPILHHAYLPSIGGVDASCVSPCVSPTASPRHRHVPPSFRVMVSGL
T1 sequence (Q9UBS5 15-961 limits assumed): as the sequence (Q9UBS5 15-961 limits assumed) above
T1 sequence (O75899 42-941): as the sequence (O75899 42-941) above

Cc1nc2ccc(N3CCCCC3)cc2c(-c2ccc(F)cc2)c1C(=O)OC(C)(C)C [Example 22, tert-butyl 4-(4-fluorophenyl)-2-methyl-6-piperidin-1-ylquinoline-3-carboxylate]
EC50 [1]: 1.3 µM | EC50 [2]: 18 µM
